Assay results as given in patent US11896589B2, “Diazinyl amino acridines and medical uses thereof” (MyCural Therapeutics AB, priority 2018, dated 2024).
Counter-ions that a name gives are not always drawn.

Legend:
[1] = system: non-MYCN-amplified neuroblastoma cells (SK-N-F1, SK-N-RA, SK-N-AS); test: Assay 5A neuroblastoma cell growth (WST-1), non-MYCN-amplified; format: cell-based; conditions: Homo sapiens, SK-N-AS
Protocol: (§1) FIG. 6: A-B) Neuroblastoma cell lines with (SK-N-DZ, Kelly and IMR-32) or without (SK-N-F1, SK-N-RA and SK-N-AS) MYCN-amplification were exposed to different concentrations of Example 1, Example 2 and control compound, respectively, for 48 hours. Cell growth and viability was estimated by measuring metabolic activity. C) Growth of TGR-1 (wt), HO15.19 (MYC knockout) and HOmyc3 (MYC reconstituted HO15.19) Rat1 fibroblasts, as measured by the WST-1 assay after treatment with Example 1. Data are shown as mean±standard deviation of 3-5 biological experiments, each with 3 technical repeats.
(§2) Assay 5A: Neuroblastoma Cell Growth
(§3) Neuroblastoma cell lines with (SK-N-DZ, Kelly and IMR-32) or without (SK-N-F1, SK-N-RA and SK-N-AS) MYCN-amplification were exposed to different concentrations of example compounds for 48 hours. Cell growth and viability was estimated by measuring metabolic activity by incubating cells in triplicates with WST-1 (Roche) in medium at 37° C. and 5% CO2 for 2 hours after which absorbance was measured with an Omega Fluostar (BMG Labtech) in a 96 well plate format.

[2] = system: MYCN-amplified neuroblastoma cells (SK-N-DZ, Kelly, IMR-32); test: Assay 5A neuroblastoma cell growth (WST-1), MYCN-amplified; format: cell-based; conditions: Homo sapiens
Protocol: as §1, §2, §3

[3] = system: Tgr and H0Myc3 Rat1 fibroblast cells; test: Assay 5B Tgr cell growth (WST-1), MYC expressing; format: cell-based, rat; conditions: Tgr/H0Myc3 vs H015.19
Protocol: as §1
Assay 5B: Tgr Cell Growth
Tgr cells were treated at 37° C. and 5% CO2 at 48 hours with Example and Example 2. H015.19 is a MYC null rat cell line derived from Tgr1 (parental cells), while H0Myc3 cells were generated from the MYC null cells by reconstitution of a MYC gene(Mateyak, M. K., Obaya, A. J., Adachi, S. & Sedivy, J. M. Phenotypes of c-Myc-deficient rat fibroblasts isolated by targeted homologous recombination. Cell Growth Differ 8, 1039-1048 (1997)).

[4] = target: T1, MYCbHLHZip (Homo sapiens, UniProt P01106); test: Assay 2B MYC SPR assay; format: binding; conditions: equilibrium binding experiments
T1 construct: An amino coupling procedure was used to immobilize MYCbHLHZip protein on a CM5 sensor chip
T1 sequence (P01106 368-449 limits assumed): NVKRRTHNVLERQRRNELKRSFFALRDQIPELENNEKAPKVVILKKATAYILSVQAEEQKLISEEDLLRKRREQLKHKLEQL
Protocol: FIG. 3: A) SPR assay to determine affinity of Example 1 to MYC. MYC bHLHZip protein was immobilized by aminocoupling on a CM5 sensor chip. Example 1 was injected at various concentrations in a kinetic experiment. The reference surface was subtracted from the analyte surface to generate a sensorgram. […] B) Four MYC equilibrium binding experiments with Example 1 summarized in an equilibrium binding plot. […] Equilibrium binding experiments of MYC with Example 2 and control compound (non-binder) were plotted as well. Assay 2B. MYC SPR Assay To analyze the direct binding of compounds to MYC, the direct binding of compounds to MYC was detected by surface plasmon resonance (SPR) as described above (Biological example 1—Assay 1B). An amino coupling procedure was used to immobilize MYCbHLHZip protein on a CM5 sensor chip (GE Healthcare) resulting in immobilization levels of approximately 800 respectively 1000 RU. The compounds were injected at different concentrations, one at a time, over the surface for 50-80 seconds with a flow rate of 30 μl/min. Afterwards the compounds were allowed to dissociate for 240 seconds in running buffer (137 mM NaCl, 2.7 mM KCl, 10 mM Na2HPO4, 1.8 mM KH2PO4, 0.005% Tween-20, 1% DMSO, pH 7.4). To remove all remaining analyte the surface was regenerated with 2M Urea for 30 seconds and thereafter 1M NaCl, 2.7 mM KCl, 10 mM Na2HPO4, 1.8 mM KH2PO4, 1% DMSO, pH 7.4 for 30 seconds. Sensorgrams were generated by subtraction of the reference (blank immobilized) surface. Binding responses were related to respective compounds' Rmax. Rmax is the maximum response of a compound when it binds with a 1:1 stochiometry to the protein; Rmax=(MW analyte/MW ligand)×immobilized ligand level on the chip (RU) x stoichiometry (1:1). Kinetic experiments were carried out where recombinant MYC bHLHZip was immobilized on the chip and different concentrations of Example 1 were injected as above. […] Example 2-6 were analyzed for their MYC binding properties by equilibrium binding experiments as described for example 1.

[5] = target: T2, MYC:MAX (MYC-GLuc-C + MAX-GLuc-N) in HEK293 cells (Homo sapiens, UniProt P01106); test: Assay 3C GLuc complementation assay; format: cell-based; conditions: HEK293
T2 construct: expressed in transfected cells; host or cells: HEK293 (also COS-7)
T2 sequence (P01106 whole entry): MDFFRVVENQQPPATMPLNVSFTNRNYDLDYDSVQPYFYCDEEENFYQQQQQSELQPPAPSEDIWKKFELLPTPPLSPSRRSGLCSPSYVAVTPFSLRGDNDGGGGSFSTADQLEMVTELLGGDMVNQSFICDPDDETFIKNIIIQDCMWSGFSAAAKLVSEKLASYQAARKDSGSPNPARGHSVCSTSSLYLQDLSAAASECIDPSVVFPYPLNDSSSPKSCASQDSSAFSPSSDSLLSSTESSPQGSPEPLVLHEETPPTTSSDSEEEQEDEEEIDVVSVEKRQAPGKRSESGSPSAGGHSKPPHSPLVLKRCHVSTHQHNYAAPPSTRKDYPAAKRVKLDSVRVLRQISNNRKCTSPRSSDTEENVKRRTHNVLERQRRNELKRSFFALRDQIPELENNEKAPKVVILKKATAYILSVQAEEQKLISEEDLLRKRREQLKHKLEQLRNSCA
Protocol: FIG. 4: A) Endogenous MYC:MAX (upper panel) and FRA1:JUN (lower panel) interactions as visualized as fluorescent red dots by isPLA. Nuclei were counterstained with DAPI (blue). Cells were treated with 10 μM of indicated compounds for 16 hours and subjected to isPLA using pairs of MYC and MAX and of FRA1 and JUN antibodies, respectively. As negative control, primary antibody pairs but only one oligo-conjugated secondary antibody was used. B) Quantification of MYC:MAX and C) FRA1:JUN isPLA, representing an average number of nuclear dots per cell from three microscopic fields normalized to corresponding values for DMSO-treated cells. […] 1st-4th lanes from top; coimmunoprecipitated MAX, immunoprecipitated MYC, total levels of MAX and ACTIN, respectively, as determined by western blot analysis. E) MYC:MAX GLuc assay in cells. […] 24 hours later cells were treated with […] of Example 1, Example 2 and control compound for 16 hours and thereafter analyzed in a dual luciferase assay. The ratio of Gaussia/Firefly luciferase luminescence were calculated and normalized to DMSO-treated cells.
The protein fragment complementation assay using the Gaussia luciferase (GLuc) has been described (Remy, I. & Michnick, S. W. A highly sensitive protein-protein interaction assay based on Gaussia luciferase. Nat Methods 3, 977-979, doi:10.1038/nmeth979 (2006)). […] 24 hours later cells were treated with compound or DMSO. After another 17 hours the cells were harvested and lyzed in passive lysis buffer (Promega) supplemented with complete protease inhibitor (Roche). After 60 min incubation at room temperature 20 μM D-luciferin was added (substrate of Firefly luciferase) and luminescence was measured in a Lumat LB9501 (Berthold) or OmegaFluostar (BMG Labtech) luminometer. Directly after, the Gaussia luciferase substrate Coelenterazine (Promega) was added to a final concentration of 20 μM and the luciferase activity was measured. The ratio between Gaussia and Firefly luciferase values were calculated and normalized to DMSO-treated control cells.

Row | Structure (SMILES) | GI50 ([1]; second run) | GI50 ([2]; second run) | GI50 ([1]; 48 h, first run) | GI50 ([2]; first run, 48 hours) | discrimination between cells dependent on MYC status [3] | Binding relative to Rmax [4] | inhibition at 10 µM [5]
1 | CCOc1ccc2nc3cc(/N=N/c4ccc(O)c(CN(C)CCN(C)C)c4)ccc3c(N)c2c1 [Example 9, 4-[(E)-(9-amino-7-ethoxy-acridin-3-yl)azo]-2-[[2-(dimethylamino)ethyl-methyl-amino]methyl]phenol] | 11 µM | 6 µM |  |  |  |  | 
2 | CCOc1ccc2nc3cc(/N=N/c4ccc(O)c(CN(C)C)c4)ccc3c(N)c2c1 [Example 12, 4-[(E)-2-(9-amino-7-ethoxyacridin-3-yl)diazen-1-yl]-2-((dimethylamino)methyl)phenol] |  | 25 µM |  |  |  |  | 
3 | CCOc1ccc2nc3cc(/N=N/c4ccc(O)c(CNCCN(C)C)c4)ccc3c(N)c2c1 [Example 8, 4-[(E)-(9-amino-7-ethoxy-acridin-3-yl)azo]-2-[[2-(dimethylamino)ethylamino]methyl]phenol hydrochloride] | 10 µM | 4 µM |  |  |  |  | 
4 | CCOc1ccc2nc3cc(/N=N/c4cc(C)c(O)cc4C)ccc3c(N)c2c1 [Example 2, 4-((9-amino-7-ethoxyacridin-3-yl)diazenyl)-3,6-dimethylphenol] | 10 µM | 2.5 µM | 12.5 µM | 4 µM | discriminated between cells dependent on MYC status | 1.2 Response Units | 65%
5 | CCOc1ccc2nc3cc(/N=N/c4ccc(O)c(CO)c4)ccc3c(N)c2c1 [Example 10, 4-[(E)-2-(9-amino-7-ethoxyacridin-3-yl)diazen-1-yl]-2-(hydroxymethyl)phenol] |  | 15 µM |  |  |  |  | 
6 | CCOc1ccc2nc3cc(/N=N/c4cc(C)c(O)c(C)c4)ccc3c(N)c2c1 [Example 6, 4-((9-amino-7-ethoxyacridin-3-yl)diazenyl)-2,6-dimethylphenol] | > 25 µM | 1 µM |  |  |  | 0.8 Response Units | 
7 | CCOc1ccc2nc3cc(/N=N/c4c(C)cc(O)cc4C)ccc3c(N)c2c1 [Example 3, 4-((9-amino-7-ethoxyacridin-3-yl)diazenyl)-3,5-dimethylphenol hydrate] | > 25 µM | 2 µM |  |  |  | 1.5 Response Units | 
